Measured values as given in patent publication US9845330B2, “6-nitro-2,3-dihydroimidazo[2,1-b]oxazoles and a process for the preparation thereof” (priority 2013, dated 2017).
≈ marks a conversion by molar mass, not a printed value. Read-outs that look alike come from different tables or passages of the source.

Columns and labels:
Assay type in all cases: cell-based
[1] = system: M. tuberculosis H37Rv (ATCC 27294); assay: MIC by broth dilution method, M. tuberculosis H37Rv; conditions: Mycobacterium tuberculosis
[2] = Cytotoxicity assay (MTT) in macrophage J774 cells; conditions: mouse, J774 macrophage cells; also called safety index
Description: (§1) The study was carried out using macrophage J774 cells line (ATCC-USA). Cells were grown in Rosewell Park Memorial Institute Medium (RPMI) containing 10% fetal calf serum (FCS) and supplemented with 75 mg/liter penicillin, 100 mg/liter streptomycin, 110 mg/liter Sodium pyruvate, 2.38 gm/liter HEPES, 0.05 mM 2 β-mercaptoethanol, and 2 gm/liter NaHCO3, in a humidified atmosphere in 5% CO2 at 37° C., and were sub-cultured at 1:4 ratio once a week.
(§2) Cells were plated at a density of 3×10^4 cells/cm^2 and maintained in culture medium for 12 hours. Cells were seeded onto 96-well flat bottom plates and FCS was reduced to 5% for the experiment. Stock solutions of compounds IA1 to IIC10 were prepared fresh to avoid oxidation. Cells were incubated with the compounds (40 μg/ml) for 24 hrs.
(§3) After the completion of incubation, the medium was removed and cell viability was evaluated by assaying for the ability of functional mitochondria to catalyze the reduction of 3-(4,5-dimethylthiazol-2-yl)-2,5-diphenyltetrazolium bromide (MTT) to form formazan salt by mitochondrial dehydrogenases, and determined by Elisa reader at 450 nm (Multiskan Spectrum; Thermo Electron Corporation, USA). Percentage cytotoxicity was calculated with respect to the untreated cells.

[3] = system: macrophage J774 cells line; assay: Cytotoxicity assay (MTT) in macrophage J774 cells; conditions: J774 cells, 24 hrs, MTT
Description: as §1, §2, §3

[4] = 504 h, broth dilution, 3 weeks, read-out: MIC M. tb H37Rv
[5] = read-out: MIC value, text summary: sensitive H37Rv as well as MDR and XDR strains of M. tuberculosis

For `C[C@]1(COc2ccc(-n3cc(-c4ccccc4)nn3)cc2)Cn2cc([N+](=O)[O-])nc2O1` [IA1], the MIC [1, 4] was 4 µg/mL (≈ 9.56 µM), the selectivity ratio at 24 h, 40 μg/ml [2] was > 10 and the Cytotoxicity [3] was >40 µg/mL.

For `CCc1ccc(-c2cn(-c3ccc(OC[C@@]4(C)Cn5cc([N+](=O)[O-])nc5O4)cc3)nn2)cc1` [IA2, (R)-2-{4-[4-(4-ethylphenyl)-1H-1,2,3-triazol-1-yl]phenoxymethyl}-2,3-dihydro-2-methyl-6-nitroimidazo[2,1-b]oxazole], the MIC [1, 4] was 2 µg/mL (≈ 4.48 µM), the selectivity ratio at 24 h, 40 μg/ml [2] was > 10 and the Cytotoxicity [3] was >40 µg/mL.

In the case of `C[C@]1(COc2ccc(-n3cc(-c4ccc(F)cc4)nn3)cc2)Cn2cc([N+](=O)[O-])nc2O1` [IA3, (R)-2-{4-[4-(4-fluorophenyl)-1H-1,2,3-triazol-1-yl]phenoxymethyl}-2,3-dihydro-2-methyl-6-nitroimidazo[2,1-b]oxazole], the MIC [1, 4] is reported as 0.25 µg/mL (≈ 0.573 µM), the MIC [1, 5] is reported as < 1 µg/mL and the selectivity ratio at 24 h, 40 μg/ml [2] is reported as > 10. The Cytotoxicity [3] was >40 µg/mL.

With `C[C@]1(COc2ccc(-n3cc(-c4ccc(OC(F)(F)F)cc4)nn3)cc2)Cn2cc([N+](=O)[O-])nc2O1` [IA5, (R)-2-{4-[4-(4-trifluoromethoxyphenyl)-1H-1,2,3-triazol-1-yl]phenoxymethyl}-2,3-dihydro-2-methyl-6-nitroimidazo[2,1-b]oxazole] the MIC [1, 4] was 0.5 µg/mL (≈ 0.995 µM), the MIC [1, 5] was < 1 µg/mL and the selectivity ratio at 24 h, 40 μg/ml [2] was > 10. For the same compound, the Cytotoxicity [3] was >40 µg/mL.

In the case of `C[C@]1(COc2ccc(-n3cc(-c4ccccc4C(F)(F)F)nn3)cc2)Cn2cc([N+](=O)[O-])nc2O1` [IA6, (R)-2-{4-[4-(2-trifluoromethylphenyl)-1H-1,2,3-triazol-1-yl]phenoxymethyl}-2,3-dihydro-2-methyl-6-nitroimidazo[2,1-b]oxazole], the MIC [1, 4] is reported as 1 µg/mL (≈ 2.06 µM), the selectivity ratio at 24 h, 40 μg/ml [2] is reported as > 10 and the Cytotoxicity [3] is reported as >40 µg/mL.

With `COc1ccc(-c2cn(-c3ccc(OC[C@@]4(C)Cn5cc([N+](=O)[O-])nc5O4)cc3)nn2)cc1` [IA11, (R)-2-{4-[4-(4-methoxyphenyl)-1H-1,2,3-triazol-1-yl]phenoxymethyl}-2,3-dihydro-2-methyl-6-nitroimidazo[2,1-b]oxazole] the MIC [1, 4] was 0.25 µg/mL (≈ 0.557 µM), the MIC [1, 5] was < 1 µg/mL and the selectivity ratio at 24 h, 40 μg/ml [2] was > 10. The Cytotoxicity [3] was >40 µg/mL.

For `C[C@]1(COc2ccc(-n3cc(-c4cccc(OC(F)(F)F)c4)nn3)cc2)Cn2cc([N+](=O)[O-])nc2O1` [IA12, (R)-2-{4-[4-(3-trifluoromethoxyphenyl)-1H-1,2,3-triazol-1-yl]phenoxymethyl}-2,3-dihydro-2-methyl-6-nitroimidazo[2,1-b]oxazole], the MIC [1, 4] was 0.5 µg/mL (≈ 0.995 µM), the MIC [1, 5] was < 1 µg/mL and the selectivity ratio at 24 h, 40 μg/ml [2] was > 10. For the same compound, the Cytotoxicity [3] was >40 µg/mL.

In the case of `C[C@]1(COc2ccc(-n3cc(-c4cccc(C(F)(F)F)c4)nn3)cc2)Cn2cc([N+](=O)[O-])nc2O1` [IA13, (R)-2-{4-[4-(3-trifluoromethylphenyl)-1H-1,2,3-triazol-1-yl]phenoxymethyl}-2,3-dihydro-2-methyl-6-nitroimidazo[2,1-b]oxazole], the MIC [1, 4] is reported as 2 µg/mL (≈ 4.11 µM), the selectivity ratio at 24 h, 40 μg/ml [2] is reported as > 10 and the Cytotoxicity [3] is reported as >40 µg/mL.

In the case of `C[C@]1(COc2ccc(-n3cc(-c4ccccn4)nn3)cc2)Cn2cc([N+](=O)[O-])nc2O1` [IA14], the MIC [1, 4] is reported as 2 µg/mL (≈ 4.77 µM), the selectivity ratio at 24 h, 40 μg/ml [2] is reported as > 10 and the Cytotoxicity [3] is reported as >40 µg/mL.

With `C[C@]1(COc2ccc(-c3cc(-c4cccc(F)c4)on3)cc2)Cn2cc([N+](=O)[O-])nc2O1` [IC8, (R)-2-{4-[5-(3-fluorophenyl)isoxazol-3-yl]phenoxymethyl}-2,3-dihydro-2-methyl-6-nitroimidazo[2,1-b]oxazole] the MIC [1, 4] was 2 µg/mL (≈ 4.58 µM) and the Cytotoxicity [3] was >40 µg/mL.

In the case of `C[C@]1(COc2ccc(-c3cc(-c4ccccn4)on3)cc2)Cn2cc([N+](=O)[O-])nc2O1` [IC9, (R)-2-{4-[5-(pyridin-2-yl)isoxazol-3-yl]phenoxymethyl}-2,3-dihydro-2-methyl-6-nitroimidazo[2,1-b]oxazole], the MIC [1, 4] is reported as 2 µg/mL (≈ 4.77 µM) and the Cytotoxicity [3] is reported as >40 µg/mL.

With `CCc1ccc(OCc2cc(-c3ccc(OC[C@@]4(C)Cn5cc([N+](=O)[O-])nc5O4)cc3)no2)cc1` [IC19, (R)-2-{4-[5-(4-ethylphenoxymethyl)isoxazol-3-yl]phenoxymethyl}-2,3-dihydro-2-methyl-6-nitroimidazo[2,1-b]oxazole] the MIC [1, 4] was 2 µg/mL (≈ 4.2 µM) and the Cytotoxicity [3] was >40 µg/mL.

In the case of `CCC(C)c1ccc(OCc2cc(-c3ccc(OC[C@@]4(C)Cn5cc([N+](=O)[O-])nc5O4)cc3)no2)cc1` (stereo partly drawn) [IC20, (R)-2-{4-[5-(4-sec-butylphenoxymethyl)isoxazol-3-yl]phenoxymethyl}-2,3-dihydro-2-methyl-6-nitroimidazo[2,1-b]oxazole], the MIC [1, 4] is reported as 2 µg/mL (≈ 3.96 µM) and the Cytotoxicity [3] is reported as >40 µg/mL.

In the case of `C[C@]1(COc2ccc(-c3cc(COc4ccccc4)on3)cc2)Cn2cc([N+](=O)[O-])nc2O1` [IC21, (R)-2-{4-[5-(phenoxymethyl)isoxazol-3-yl]phenoxymethyl}-2,3-dihydro-2-methyl-6-nitroimidazo[2,1-b]oxazole], the MIC [1, 4] is reported as 4 µg/mL (≈ 8.92 µM) and the Cytotoxicity [3] is reported as >40 µg/mL.

With `COc1ccc(NC(=S)Nc2ccc(OC[C@@]3(C)Cn4cc([N+](=O)[O-])nc4O3)cc2)cc1` [IIA7, (R)-1-(4-methoxyphenyl)-3-{4-(2-methyl-6-nitro-2,3-dihydroimidazo[2,1-b]oxazol-2-yl)methoxyphenyl}thiourea] the MIC [1, 4] was 2 µg/mL (≈ 4.39 µM) and the Cytotoxicity [3] was >40 µg/mL.

With `C[C@]1(COc2ccc(NC(=S)Nc3ccc(OC(F)(F)F)cc3)cc2)Cn2cc([N+](=O)[O-])nc2O1` [IIA8, (R)-1-(4-trifluoromethoxyphenyl)-3-{4-(2-methyl-6-nitro-2,3-dihydroimidazo[2,1-b]oxazol-2-yl)methoxyphenyl}thiourea] the MIC [1, 4] was 2 µg/mL (≈ 3.93 µM) and the Cytotoxicity [3] was >40 µg/mL.

In the case of `C[C@]1(COc2ccc(NC(=S)Nc3ccc(F)cc3)cc2)Cn2cc([N+](=O)[O-])nc2O1` [IIA9, (R)-1-(4-fluorophenyl)-3-{4-(2-methyl-6-nitro-2,3-dihydroimidazo[2,1-b]oxazol-2-yl)methoxyphenyl}thiourea], the MIC [1, 4] is reported as 4 µg/mL (≈ 9.02 µM) and the Cytotoxicity [3] is reported as >40 µg/mL.

In the case of `C[C@]1(COc2ccc(NC(=S)Nc3ccc(C(F)(F)F)cc3)cc2)Cn2cc([N+](=O)[O-])nc2O1` [IIA10, (R)-1-(4-trifluoromethylphenyl)-3-{4-(2-methyl-6-nitro-2,3-dihydroimidazo[2,1-b]oxazol-2-yl)methoxyphenyl}thiourea], the MIC [1, 4] is reported as 4 µg/mL (≈ 8.11 µM) and the Cytotoxicity [3] is reported as >40 µg/mL.

With `Cc1ccc(NS(=O)(=O)c2ccc(OC[C@@]3(C)Cn4cc([N+](=O)[O-])nc4O3)cc2)cc1` [IIB1, (R)-4-{(2-methyl-6-nitro-2,3-dihydroimidazo[2,1-b]oxazol-2-yl)methoxy}-N-(p-tolyl)benzenesulfonamide] the MIC [1, 4] was 2 µg/mL (≈ 4.5 µM) and the Cytotoxicity [3] was >40 µg/mL.

In the case of `C[C@]1(COc2ccc(S(=O)(=O)Nc3ccc(OC(F)(F)F)cc3)cc2)Cn2cc([N+](=O)[O-])nc2O1` [IIB2, (R)-4-{(2-methyl-6-nitro-2,3-dihydroimidazo[2,1-b]oxazol-2-yl)methoxy}-N-(4 trifluoromethoxyphenyl)benzenesulfonamide], the MIC [1, 4] is reported as 2 µg/mL (≈ 3.89 µM) and the Cytotoxicity [3] is reported as >40 µg/mL.

For `C[C@]1(COc2ccc(S(=O)(=O)Nc3ccc(C(F)(F)F)cc3)cc2)Cn2cc([N+](=O)[O-])nc2O1` [IIB3, (R)-4-{(2-methyl-6-nitro-2,3-dihydroimidazo[2,1-b]oxazol-2-yl)methoxy}-N-(4 trifluoromethylphenyl)benzenesulfonamide], the MIC [1, 4] was 2 µg/mL (≈ 4.01 µM) and the Cytotoxicity [3] was >40 µg/mL.

In the case of `CN(c1ccccc1)S(=O)(=O)c1ccc(OC[C@@]2(C)Cn3cc([N+](=O)[O-])nc3O2)cc1` [IIB4, (R)—N-methyl-4-{(2-methyl-6-nitro-2,3-dihydroimidazo[2,1-b]oxazol-2-yl)methoxy}-N-phenylbenzenesulfonamide], the MIC [1, 4] is reported as 4 µg/mL (≈ 9 µM) and the Cytotoxicity [3] is reported as >40 µg/mL.

With `Cc1ccc(N(C)S(=O)(=O)c2ccc(OC[C@@]3(C)Cn4cc([N+](=O)[O-])nc4O3)cc2)cc1` [IIB5, (R)—N-methyl-4-{(2-methyl-6-nitro-2,3-dihydroimidazo[2,1-b]oxazol-2-yl)methoxy}-N-(p-tolyl)benzenesulfonamide] the MIC [1, 4] was 4 µg/mL (≈ 8.72 µM) and the Cytotoxicity [3] was >40 µg/mL.

In the case of `CN(c1ccc(C(F)(F)F)cc1)S(=O)(=O)c1ccc(OC[C@@]2(C)Cn3cc([N+](=O)[O-])nc3O2)cc1` [IIB6, (R)—N-methyl-4-{(2-methyl-6-nitro-2,3-dihydroimidazo[2,1-b]oxazol-2-yl)methoxy}-N-(p-trifluoromethylphenyl)benzenesulfonamide], the MIC [1, 4] is reported as 1 µg/mL (≈ 1.95 µM) and the Cytotoxicity [3] is reported as >40 µg/mL.

In the case of `C[C@]1(COc2ccc(S(=O)(=O)N3CCN(c4ccccc4)CC3)cc2)Cn2cc([N+](=O)[O-])nc2O1` [IIC1, (R)-2-{4-(4-phenylpiperazin-1-yl)sulfonylphenoxymethyl}-2,3-dihydro-2-methyl-6-nitroimidazo[2,1-b]oxazole], the MIC [1, 4] is reported as 1 µg/mL (≈ 2 µM) and the Cytotoxicity [3] is reported as >40 µg/mL.

With `C[C@]1(COc2ccc(S(=O)(=O)N3CCN(c4ccc(F)cc4)CC3)cc2)Cn2cc([N+](=O)[O-])nc2O1` [IIC2, (R)-2-{4-[4-(4-fluorophenyl)piperazin-1-yl]sulfonylphenoxymethyl}-2,3-dihydro-2-methyl-6-nitroimidazo[2,1-b]oxazole] the MIC [1, 4] was 2 µg/mL (≈ 3.86 µM) and the Cytotoxicity [3] was >40 µg/mL.
